Values quoted from earlier work, collected in CN102406622A, “一种托伐普坦的固体制剂” (Zhejiang Huahai Pharmaceutical Co Ltd, priority 2011, dated 2012).

Details: low solubility, low permeability

## Cc1ccccc1C(=O)Nc1ccc(C(=O)N2CCC[C@@H](O)c3cc(Cl)ccc32)c(C)c1 [托伐普坦, N-[4-[(5R)-7-氯-5-羟基-2,3,4,5-四氢-1-苯并氮杂卓-1-甲酰基]-3-甲基苯基]-2-甲基苯甲酰胺]
  BCS class: IV类药
